We go through 44 compounds from patent US6083944A, “Quinoline-containing α-ketoamide cysteine and serine protease inhibitors” (Cephalon, Inc., priority 1998, dated 2000).

Molecules are shown by their SMILES.

One assay deals with T1, Recombinant human calpain I (Homo sapiens, UniProt P07384).
T1 construct: made in house
T1 sequence (P07384 1-714): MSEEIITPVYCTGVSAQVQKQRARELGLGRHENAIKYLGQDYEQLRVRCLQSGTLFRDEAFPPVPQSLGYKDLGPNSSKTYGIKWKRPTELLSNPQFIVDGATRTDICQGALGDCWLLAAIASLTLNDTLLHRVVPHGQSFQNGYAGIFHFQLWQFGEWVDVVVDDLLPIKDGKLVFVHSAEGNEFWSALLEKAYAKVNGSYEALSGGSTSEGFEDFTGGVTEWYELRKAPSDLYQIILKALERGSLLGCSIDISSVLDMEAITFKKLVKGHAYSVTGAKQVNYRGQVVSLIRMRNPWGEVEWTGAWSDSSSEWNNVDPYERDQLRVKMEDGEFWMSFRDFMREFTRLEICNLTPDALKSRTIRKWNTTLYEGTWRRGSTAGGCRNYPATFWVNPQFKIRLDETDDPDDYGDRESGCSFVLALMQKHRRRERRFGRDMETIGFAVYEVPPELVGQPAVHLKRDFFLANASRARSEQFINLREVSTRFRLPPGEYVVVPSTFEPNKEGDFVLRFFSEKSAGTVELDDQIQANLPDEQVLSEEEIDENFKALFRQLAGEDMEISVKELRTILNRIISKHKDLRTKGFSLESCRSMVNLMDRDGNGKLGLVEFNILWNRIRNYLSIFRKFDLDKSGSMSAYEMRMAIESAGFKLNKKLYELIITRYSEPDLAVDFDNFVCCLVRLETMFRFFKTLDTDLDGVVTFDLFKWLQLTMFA
The experiment in a line: Inhibition of calpain I (Succ-Leu-Tyr-MNA hydrolysis). The conditions noted are these: Table 5; ** explained as 10,000 nM only in footnotes to Tables 2-4. It counts as biochemical. The method, then: To evaluate inhibitory activity, stock solutions (40 times concentrated) of each compound to be tested were prepared in 100% anhydrous DMSO and 5 μl of each inhibitor preparation was aliquoted into each of three wells of a 96-well plate. Recombinant human calpain I, prepared by the method of Meyer et al. (Biochem. J. 1996, 314: 511-519), was diluted into assay buffer (i.e., 50 mM Tris, 50 mM NaCl, 1 mM EDTA, 1 mM EGTA, and 5 mM β-mercaptoethanol, pH 7.5, including 0.2 mM Succ-Leu-Tyr-MNA), and 175 μl was aliquoted into the same wells containing the independent inhibitor stocks as well as to positive control wells containing 5 μl DMSO, but no compound. To start the reaction, 20 μl of 50 mM CaCl2 in assay buffer was added to all wells of the plate, excepting three, which were used as background signal baseline controls. Substrate hydrolysis was monitored every 5 minutes for a total of 30 minutes. Substrate hydrolysis in the absence of inhibitor was linear for up to 15 minutes.
Inhibition of calpain I activity was calculated as the percent decrease in the rate of substrate hydrolysis in the presence of inhibitor relative to the rate in its absence. Comparison between the inhibited and control rates was made within the linear range for substrate hydrolysis. The IC50 S of inhibitors (concentration yielding 50% inhibition) were determined from the percent decrease in rates of substrate hydrolysis in the presence of five to seven different concentrations of the test compound. The results were plotted as percent inhibition versus log inhibitor concentration, and the IC50 was calculated by fitting the data to the four-parameter logistic equation shown below using the program GraphPad Prism (GraphPad Software, Inc., San Diego, Calif.).
The parameters a, b, c, and d are defined as follows: a is % inhibition in the absence of inhibitor, b is the slope, c is the IC50, and d is the % inhibition at an infinite concentration of inhibitor.
In the case of `O=C(NCCNS(=O)(=O)c1ccccc1)C(=O)C(Cc1ccccc1)NC(=O)c1nc(-c2ccccc2)nc2ccccc12` (centres unmarked) [Example 153], the “Calpain I IC50 ** (value in parentheses: % inhibition)” value was determined as 95%. Same read-out and setting: as for `CCCC(NC(=O)c1cc(Cl)nc2ccccc12)C(=O)C(=O)NCCNS(=O)(=O)c1ccc([N+](=O)[O-])cc1` (centres unmarked) [Example 150], the figure is 78%.

Still in this assay, the particulars now being: Table 5; head prints no unit.
Turning to `CCCC(NC(=O)c1cc(Cl)nc2ccccc12)C(=O)C(=O)NCCNS(=O)(=O)c1ccc(-c2ccccn2)s1` (centres unmarked) [Example 156], the IC50 was 43 nM. On the same count and under the same terms, to `O=C(NCCNS(=O)(=O)c1ccc(-c2ccccn2)s1)C(=O)C(Cc1ccccc1)NC(=O)c1nc(-c2ccccc2)nc2ccccc12` (centres unmarked) [Example 154] belongs 83 nM; to `CCCCC(NC(=O)c1cc(Cl)nc2ccccc12)C(=O)C(=O)NCCNS(=O)(=O)c1ccc(-c2ccccn2)s1` (centres unmarked) [Example 155], 31 nM.

The assay is the same for the next values; noted with them: Tables 2-4; pH 7.5.
Take `Cc1cc(C(=O)NC(Cc2ccccc2)C(=O)C(=O)NCCNS(=O)(=O)c2ccc(-c3ccccn3)s2)c2ccccc2n1` (single isomer, unassigned) [Example 142]: the IC50 stood at 24 nM. On to `O=C(NCc1ccccc1)C(=O)[C@H](Cc1ccccc1)NC(=O)c1cc(C#Cc2ccccc2)nc2ccccc12` [Example 36], for which the IC50 turned out to be 79 nM. For `O=C(NCCNS(=O)(=O)c1cccc2cccnc12)C(=O)C(Cc1ccccc1)NC(=O)c1cc(C#Cc2ccccc2)nc2ccccc12` (centres unmarked) [Example 89], the IC50 was found to be 130 nM. The same measure, in the same setting: to `O=C(NCCS(=O)(=O)Nc1ccccc1)C(=O)C(Cc1ccccc1)NC(=O)c1cc(Cl)nc2ccccc12` (centres unmarked) [Example 147] belongs 81 nM; to `COc1ccc2nc(C)cc(C(=O)NC(Cc3ccccc3)C(=O)C(=O)NCCNS(=O)(=O)c3ccc(-c4ccccn4)s3)c2c1` (single isomer, unassigned) [Example 143], 35 nM; to `O=C(NCCCNC(=O)C(=O)C(Cc1ccccc1)NC(=O)c1cc(C#Cc2ccccc2)nc2ccccc12)Nc1ccccc1` (centres unmarked) [Example 98], 126 nM. Still for that read-out and setting: as for `O=C(NCCNS(=O)(=O)c1ccccc1)C(=O)C(Cc1ccccc1)NC(=O)c1cc(CCc2ccccc2)nc2ccccc12` (centres unmarked) [Example 137], the figure is 16 nM. `C=CCNC(=O)C(=O)C(Cc1ccccc1)NC(=O)c1cc(C#Cc2ccccc2)nc2ccccc12` (centres unmarked) [Example 3]: the IC50 is 210 nM. Consider `O=C(NCCNS(=O)(=O)c1ccc(-c2ccccn2)s1)C(=O)C(Cc1ccccc1)NC(=O)c1cc(C2CC2)nc2ccccc12` (centres unmarked) [Example 145], for which the IC50 was determined as 71 nM. `CN(C)S(=O)(=O)NCCNC(=O)C(=O)C(Cc1ccccc1)NC(=O)c1cc(C#Cc2ccccc2)nc2ccccc12` (centres unmarked) [Example 94]: the IC50 stood at 141 nM. On the same count and under the same terms, as for `O=C(NCCNS(=O)(=O)c1ccc(-c2ccccn2)s1)C(=O)C(Cc1ccccc1)NC(=O)c1cc(-c2cccs2)nc2ccccc12` (centres unmarked) [Example 146], the figure is 85 nM; as for `O=C(NCCNS(=O)(=O)C=Cc1ccccc1)C(=O)C(Cc1ccccc1)NC(=O)c1cc(C#Cc2ccccc2)nc2ccccc12` (centres unmarked) [Example 91], 42 nM. Same read-out and setting: to `O=C(NCCNC(=O)C(=O)C(Cc1ccccc1)NC(=O)c1cc(C#Cc2ccccc2)nc2ccccc12)NC12CC3CC(CC(C3)C1)C2` (centres unmarked) [Example 63] belongs 257 nM. Same read-out and setting: as for `O=C(NCCc1ccccc1)C(=O)C(Cc1ccccc1)NC(=O)c1cc(C#Cc2ccccc2)nc2ccccc12` (centres unmarked) [Example 43], the figure is 390 nM; as for `O=C(NOCCNS(=O)(=O)c1ccccc1)C(=O)C(Cc1ccccc1)NC(=O)c1cc(C#Cc2ccccc2)nc2ccccc12` (centres unmarked) [Example 105], 128 nM.

The assay is the same for the next values; noted with them: Tables 2-4; values in parentheses; at 10,000 nM.
On to `C=C(C)C(=O)OCCNC(=O)C(=O)C(Cc1ccccc1)NC(=O)c1cc(C#Cc2ccccc2)nc2ccccc12` (centres unmarked) [Example 111], for which the inhibition at 10 µM was determined as 95%. On the same count and under the same terms, as for `O=C(NCCNC(=O)[C@@H]1CCCN1S(=O)(=O)c1ccccc1)C(=O)C(Cc1ccccc1)NC(=O)c1cc(C#Cc2ccccc2)nc2ccccc12` (some centres unmarked) [Example 108], the figure is 94%; as for `O=C(NCCNS(=O)(=O)c1ccccc1)C(=O)C(Cc1ccccc1)NC(=O)c1ccnc2ccccc12` (single isomer, unassigned) [Example 131], 97%; as for `COCCNC(=O)C(=O)C(CC(C)C)NC(=O)c1cc(C#Cc2ccccc2)nc2ccccc12` (centres unmarked) [Example 112], 95%. Regarding `O=C(NC12CC3CC(CC(C3)C1)C2)C(=O)C(Cc1ccccc1)NC(=O)c1cc(C#Cc2ccccc2)nc2ccccc12` (centres unmarked) [Example 15], the inhibition at 10 µM amounted to 41%.

Regarding `O=C(NCCCCCCNS(=O)(=O)c1cccc2c(Cl)cccc12)C(=O)C(Cc1ccccc1)NC(=O)c1cc(C#Cc2ccccc2)nc2ccccc12` (centres unmarked) [Example 101], the inhibition at 10 µM was found to be 84%. The same measure, in the same setting: to `CC(C)CC(NC(=O)c1cc(C#Cc2ccccc2)nc2ccccc12)C(=O)C(=O)NCCNS(=O)(=O)c1ccccc1` (centres unmarked) [Example 117] belongs 82%.

In the case of `O=C(NCCNS(=O)(=O)c1cccc([N+](=O)[O-])c1)C(=O)C(Cc1ccccc1)NC(=O)c1cc(C#Cc2ccccc2)nc2ccccc12` (centres unmarked) [Example 78], the inhibition at 10 µM was 88%. Still for that read-out and setting: to `O=C(NCCC1=CCCCC1)C(=O)C(Cc1ccccc1)NC(=O)c1cc(C#Cc2ccccc2)nc2ccccc12` (centres unmarked) [Example 6] belongs 89%.

As for `CC(C)(C)OC(=O)N=C(NCCCCC(CO)NC(=O)C(=O)C(Cc1ccccc1)NC(=O)c1cc(C#Cc2ccccc2)nc2ccccc12)NC(=O)OC(C)(C)C` (centres unmarked) [Example 25], the inhibition at 10 µM stood at 42%.

Regarding `CN(C)NC(=O)C(=O)C(Cc1ccccc1)NC(=O)c1cc(C#Cc2ccccc2)nc2ccccc12` (centres unmarked) [Example 110], the inhibition at 10 µM amounted to 43%.

Consider `O=C(NC1CCCCC1O)C(=O)C(Cc1ccccc1)NC(=O)c1cc(C#Cc2ccccc2)nc2ccccc12` (centres unmarked) [Example 28], for which the inhibition at 10 µM was 61%.

Consider `O=C(NCC(c1ccccc1)c1ccccc1)C(=O)C(Cc1ccccc1)NC(=O)c1cc(C#Cc2ccccc2)nc2ccccc12` (centres unmarked) [Example 44], for which the inhibition at 10 µM amounted to 85%. For the compound `O=C(NCCCCCO)C(=O)C(Cc1ccccc1)NC(=O)c1cc(C#Cc2ccccc2)nc2ccccc12` (centres unmarked) [Example 14], the inhibition at 10 µM was 98%. For the compound `O=C(NCC1CC1)C(=O)C(Cc1ccccc1)NC(=O)c1cc(C#Cc2ccccc2)nc2ccccc12` (centres unmarked) [Example 4], the inhibition at 10 µM worked out at 100%. Still for that read-out and setting: to `O=C(NCc1ccncc1)C(=O)C(Cc1ccccc1)NC(=O)c1cc(C#Cc2ccccc2)nc2ccccc12` (centres unmarked) [Example 47] belongs 98%; to `O=C(NC1Cc2ccccc2C1)C(=O)C(Cc1ccccc1)NC(=O)c1cc(C#Cc2ccccc2)nc2ccccc12` (centres unmarked) [Example 55], 60%; to `O=C(NCCNC(=O)C(=O)C(Cc1ccccc1)NC(=O)c1cc(C#Cc2ccccc2)nc2ccccc12)Nc1ccc(Br)cc1` (centres unmarked) [Example 61], 94%. Still for that read-out and setting: as for `O=C(NCc1cccnc1)C(=O)C(Cc1ccccc1)NC(=O)c1cc(C#Cc2ccccc2)nc2ccccc12` (centres unmarked) [Example 46], the figure is 91%. Same read-out and setting: as for `CC(C)CC(NC(=O)c1cc(C#Cc2ccccc2)nc2ccccc12)C(=O)C(=O)NCCCNS(=O)(=O)c1ccccc1` (centres unmarked) [Example 119], the figure is 80%; as for `CC(C)CC(NC(=O)c1cc(C#Cc2ccccc2)nc2ccccc12)C(=O)C(=O)NCCOCCO` (centres unmarked) [Example 114], 93%; as for `C#CCNC(=O)C(=O)C(Cc1ccccc1)NC(=O)c1cc(C#Cc2ccccc2)nc2ccccc12` (centres unmarked) [Example 1], 91%. On to `O=C(NCc1cccc([N+](=O)[O-])c1)C(=O)C(Cc1ccccc1)NC(=O)c1cc(C#Cc2ccccc2)nc2ccccc12` (centres unmarked) [Example 40], for which the inhibition at 10 µM amounted to 95%.

Regarding `COC(=O)C(CCCCNC(=O)C(=O)C(Cc1ccccc1)NC(=O)c1cc(C#Cc2ccccc2)nc2ccccc12)NC(=O)OC(C)(C)C` (centres unmarked) [Example 106], the inhibition at 10 µM is 97%.

By IC50 is commonly meant the concentration that inhibits the measured activity by half. Usually inhibition stands for how much of the control response was suppressed.
